The NIST ThermoML archive (doi:10.1021/acs.jced.7b01018)
Numbers after ± are expanded uncertainties.

Details: Liquid, Frequency=2 MHz, Single path-length method

Work on `CCO` [ethanol] yielded a speed of sound (323.31 K, 1410 kPa) of 1070.7 ± 1.2 m/s, a speed of sound (323.31 K, 5245 kPa) of 1096.8 ± 1.2 m/s and a speed of sound (323.31 K, 11101 kPa) of 1135 ± 1.3 m/s. For the same molecule, the speed of sound (323.31 K, 17687 kPa) was 1174.5 ± 1.3 m/s, the speed of sound (323.31 K, 23114 kPa) was 1204.2 ± 1.4 m/s and the speed of sound (323.31 K, 30237 kPa) was 1241.9 ± 1.5 m/s. For the same molecule, the speed of sound (323.31 K, 36831 kPa) was 1274.5 ± 1.5 m/s, the speed of sound (323.31 K, 43809 kPa) was 1306 ± 1.6 m/s and the speed of sound (323.31 K, 50864 kPa) was 1337.3 ± 1.6 m/s. It also gave a speed of sound (323.31 K, 58500 kPa) of 1369.4 ± 1.7 m/s, a speed of sound (323.31 K, 62862 kPa) of 1386.2 ± 1.7 m/s and a speed of sound (347.1 K, 1446 kPa) of 991.29 ± 1.1 m/s. For the same molecule, the speed of sound (347.1 K, 4092 kPa) was 1011.8 ± 1.1 m/s, the speed of sound (347.1 K, 7163 kPa) was 1035 ± 1.1 m/s and the speed of sound (347.1 K, 14616 kPa) was 1085.6 ± 1.2 m/s. It also gave a speed of sound (347.1 K, 21177 kPa) of 1126.4 ± 1.3 m/s, a speed of sound (347.1 K, 28408 kPa) of 1168.1 ± 1.3 m/s and a speed of sound (347.1 K, 35022 kPa) of 1203.4 ± 1.4 m/s. The speed of sound (347.1 K, 42067 kPa) was 1238.6 ± 1.4 m/s, the speed of sound (347.1 K, 48843 kPa) was 1270.3 ± 1.5 m/s and the speed of sound (347.1 K, 54137 kPa) was 1294.1 ± 1.5 m/s. It also gave a speed of sound (347.1 K, 58348 kPa) of 1312.6 ± 1.6 m/s, a speed of sound (347.1 K, 62859 kPa) of 1331.6 ± 1.6 m/s and a speed of sound (369.38 K, 1432 kPa) of 914.53 ± 1 m/s. For the same molecule, the speed of sound (369.38 K, 3923 kPa) was 936.5 ± 1 m/s, the speed of sound (369.38 K, 7109 kPa) was 963.26 ± 1.1 m/s and the speed of sound (369.38 K, 11382 kPa) was 996.24 ± 1.1 m/s. It also gave a speed of sound (369.38 K, 19601 kPa) of 1053.8 ± 1.2 m/s, a speed of sound (369.38 K, 27704 kPa) of 1104.7 ± 1.2 m/s and a speed of sound (369.38 K, 33060 kPa) of 1135.3 ± 1.3 m/s. For the same molecule, the speed of sound (369.38 K, 41165 kPa) was 1179.1 ± 1.4 m/s, the speed of sound (369.38 K, 49420 kPa) was 1220.3 ± 1.4 m/s and the speed of sound (369.38 K, 54796 kPa) was 1246.1 ± 1.4 m/s. It also gave a speed of sound (369.38 K, 58367 kPa) of 1261.5 ± 1.5 m/s, a speed of sound (369.38 K, 65148 kPa) of 1291.2 ± 1.5 m/s and a speed of sound (397.28 K, 1546 kPa) of 811.26 ± 0.98 m/s. For the same molecule, the speed of sound (397.28 K, 4302 kPa) was 840.39 ± 0.97 m/s, the speed of sound (397.28 K, 7333 kPa) was 870.18 ± 0.99 m/s and the speed of sound (397.28 K, 12482 kPa) was 915.79 ± 1 m/s. It also gave a speed of sound (397.28 K, 18105 kPa) of 960.62 ± 1.1 m/s, a speed of sound (397.28 K, 24432 kPa) of 1006.2 ± 1.1 m/s and a speed of sound (397.28 K, 29996 kPa) of 1043.3 ± 1.1 m/s. For the same molecule, the speed of sound (397.28 K, 36074 kPa) was 1080.7 ± 1.2 m/s, the speed of sound (397.28 K, 44752 kPa) was 1129.5 ± 1.3 m/s and the speed of sound (397.28 K, 49805 kPa) was 1156 ± 1.3 m/s. For the same molecule, the speed of sound (397.28 K, 58415 kPa) was 1198.6 ± 1.4 m/s, the speed of sound (397.28 K, 63790 kPa) was 1223.5 ± 1.4 m/s and the speed of sound (422.9 K, 1514 kPa) was 701.53 ± 0.95 m/s. For the same molecule, the speed of sound (422.9 K, 5675 kPa) was 755.36 ± 0.94 m/s, the speed of sound (422.9 K, 9530 kPa) was 798.44 ± 0.93 m/s and the speed of sound (422.9 K, 15206 kPa) was 853.77 ± 0.95 m/s. The speed of sound (422.9 K, 23492 kPa) was 923.37 ± 1 m/s, the speed of sound (422.9 K, 31793 kPa) was 984.06 ± 1.1 m/s and the speed of sound (422.9 K, 38446 kPa) was 1027.7 ± 1.1 m/s. It also gave a speed of sound (422.9 K, 47571 kPa) of 1082 ± 1.2 m/s, a speed of sound (422.9 K, 53132 kPa) of 1112.2 ± 1.2 m/s and a speed of sound (422.9 K, 58734 kPa) of 1141.2 ± 1.3 m/s. The speed of sound (422.9 K, 63754 kPa) was 1166.2 ± 1.3 m/s.
